# According to US5283247A, “Anticonvulsant substituted quinazolones” (Research Corporation Technologies, Inc., priority 1992, dated 1994):
# What was measured:
# [1] = pentylenetetrazol (90 mg/kg sc) induced seizures in mice, percent protection; type: in vivo, male mice (Swiss-Webster); settings: for Percent Protection: 100 mg/kg ip, pentylenetetrazol 90 mg/kg sc one hour later, observed 60 minutes (Table 3); for Percent Protection / protection against pentylenetetrazol seizures: mice; for protection against pentylenetetrazol seizures: Example 6, 100 mg/kg ip; for Percent Protection against pentylenetetrazol (dose response): pentylenetetrazol 90 mg/kg s.c. given 1 hour after; for Percent Protection against pentylenetetrazol (time response): pentylenetetrazol 90 mg/kg s.c.
# Experimental: (§1) The mice were divided in groups of 10, keeping the group weights equal as far as possible. The quinazolones shown in Table 2 as well as methaqualone were injected ip (100 mg/kg) in a 5% aqueous suspension of gum acacia to one group of 10 animals. One hour after the administration of quinazolones, the mice were injected with pentylenetetrazol (90 mg/kg) sc under the loose skin of the back. […] The mice were then observed for the following 60 minutes for the occurrence of seizures. One episode of clonic spasm which persisted for a minimum period of 5 seconds was considered a threshold convulsion. Transient intermittent jerks or tremulousness were not taken into account. Animals devoid of even a threshold convulsion during the period of 60 minutes were considered protected. […] Mortality was recorded 24 hours after the pentylenetetrazol injection. After the injection of test compounds, behavioral observations were also made. […] 2 and compound no.
# (§2) Dose response and time response studies were performed with compound no. 2 by injecting it into a group of 10 male Swiss-Webster mice. In addition, a group of 10 male ICR mice were injected with different dosages of compound no. 2 to determine the approximate LD50.
# [2] = 24 hour mortality / toxicity in mice after test compound and pentylenetetrazol; type: in vivo, male mice (Swiss-Webster); settings: for 24 Hour Mortality: 100 mg/kg ip, 24 hours after pentylenetetrazol injection, groups of 10; for toxicity at the effective dosage: Example 6, 100 mg/kg ip
# Experimental: as §1
# [3] = behavioral observations / gross CNS effects in mice; type: in vivo, male mice (Swiss-Webster); settings: 100 mg/kg ip, after injection of test compounds
# Experimental: The mice were divided in groups of 10, keeping the group weights equal as far as possible. The quinazolones shown in Table 2 as well as methaqualone were injected ip (100 mg/kg) in a 5% aqueous suspension of gum acacia to one group of 10 animals. One hour after the administration of quinazolones, the mice were injected with pentylenetetrazol (90 mg/kg) sc under the loose skin of the back. […] The mice were then observed for the following 60 minutes for the occurrence of seizures. One episode of clonic spasm which persisted for a minimum period of 5 seconds was considered a threshold convulsion. Transient intermittent jerks or tremulousness were not taken into account. Animals devoid of even a threshold convulsion during the period of 60 minutes were considered protected. […] Mortality was recorded 24 hours after the pentylenetetrazol injection. After the injection of test compounds, behavioral observations were also made.
# [4] = therapeutic index compared with methaqualone; settings: conclusion from Examples 6, 7 and 8
# approximate LD50 in mice = settings: mouse, in vivo, ip; male ICR mice, observed 24 hours
# Experimental: as §2
# Approximate LD50 was determined in male ICR mice.
# [5] = Maximal Electric Shock (MES) seizure in mice; type: in vivo; settings: 30 mg/kg ip in mice
# Experimental: In addition, compound no. 2 was also tested against Maximal Electric Shock (MES) seizure. Compound no.
# (§3) Maximal electroshock seizures were elicited with a 60 cycle alternating current of 50mA intensity (5-7 times that necessary to elicit minimal electroshock seizures) delivered for 0.2 seconds via corneal electrodes. A drop of 0.9% saline was instilled in the eye prior to application of the electrodes in order to […]. Abolition of the hind limb tonic extension component of the seizure was defined as protection.
# [6] = pentylenetetrazol-induced seizure in rats; type: in vivo; settings: 50 mg/kg orally
# Experimental: (§4) Compound No. 2 was also tested in rats. Four rats were treated with compound no. 2 at a dosage of 50 mg/kg orally. Anticonvulsant effects of compound no. […] The toxic symptoms were also observed. It can be seen from this table that compound no.
# [7] = maximal electric shock seizures (MES) in rats; type: in vivo; settings: 50 mg/kg orally
# Experimental: as §4, §3
# toxic symptoms in rats = type: in vivo; settings: 50 mg/kg orally
# Experimental: as §4
# [8] = cited from earlier work
# [9] = reference 3; cited from earlier work
smiles,measurement,setting,value
"Cc1ccccc1-n1c(C)nc2cc(N)ccc2c1=O [Compound 14, 2-Methyl-3-o-tolyl-7-amino-4-quinazolone]",Percent Protection,[1],100%
same,protection against pentylenetetrazol seizures,[1],100%
same,24 Hour Mortality,[2],0
same,toxicity at the effective dosage,[2],did not exhibit any toxicity
same,Behavioral Observations,[3],none
same,therapeutic index versus methaqualone,[4],higher therapeutic indices than methaqualone
"Cc1cccnc1-n1c(C)nc2ccccc2c1=O [Compound 2, 2-Methyl-3-(3-methyl-2-pyridyl)-4-quinazolone]",Percent Protection against pentylenetetrazol (dose response),[1]; 40 mg/kg i.p.,20%
same,Percent Protection against pentylenetetrazol (dose response),[1]; 60 mg/kg i.p.,80%
same,Percent Protection against pentylenetetrazol (dose response),[1]; 80 mg/kg i.p.,90%
same,Percent Protection against pentylenetetrazol (dose response),[1]; 100 mg/kg i.p.,100%
same,Percent Protection,[1],100%
same,Percent Protection against pentylenetetrazol (time response),"[1]; 1 hr after injection, 100 mg/kg i.p.",100%
same,Percent Protection against pentylenetetrazol (time response),"[1]; 2 hr after injection, 100 mg/kg i.p.",60%
same,Percent Protection against pentylenetetrazol (time response),"[1]; 3 hr after injection, 100 mg/kg i.p.",0%
same,Percent Protection against pentylenetetrazol (time response),"[1]; 4 hr after injection, 100 mg/kg i.p.",0%
same,protection against pentylenetetrazol seizures,[1],100%
same,24 Hour Mortality,[2],0
same,toxicity at the effective dosage,[2],did not exhibit any toxicity
same,Behavioral Observations,[3],mild sedation
same,LD50 at 24 h,approximate LD50 in mice,~1000 mg/kg
same,protection against MES,[5],100%
same,Percent protection against pentylenetetrazol,"[6]; 0.25 Hr., three rats",33.3%
same,Percent protection against pentylenetetrazol,"[6]; 0.5 Hr., four rats",75%
same,Percent protection against pentylenetetrazol,"[6]; 1 Hr., four rats",25%
same,Percent protection against pentylenetetrazol,"[6]; 4 Hr., four rats",25%
same,protection against pentylenetetrazol-induced seizure,"[6]; all time periods, Example 8",protected against both MES and pentylenetetrazol-induced seizure at all time periods
same,Percent protection against MES,[7]; 0.25 Hr.,75%
same,Percent protection against MES,[7]; 0.5 Hr.,50%
same,Percent protection against MES,[7]; 1 Hr.,75%
same,Percent protection against MES,[7]; 2 Hr.,50%
same,Percent protection against MES,[7]; 4 Hr.,25%
same,protection against MES,"[7]; all time periods, Example 8",protected against both MES and pentylenetetrazol-induced seizure at all time periods
same,Toxicity in percent rats,toxic symptoms in rats; 0.25 Hr.,0%
same,Toxicity in percent rats,toxic symptoms in rats; 0.5 Hr.,0%
same,Toxicity in percent rats,toxic symptoms in rats; 1 Hr.,0%
same,Toxicity in percent rats,toxic symptoms in rats; 2 Hr.,0%
same,Toxicity in percent rats,toxic symptoms in rats; 4 Hr.,0%
same,toxic symptoms,"toxic symptoms in rats; rats, all time periods, Example 8",without exhibiting any toxic symptoms
same,therapeutic index versus methaqualone,[4],higher therapeutic indices than methaqualone
"Cc1ccccc1-n1c(C)nc2ccccc2c1=O [Compound 1, 2-methyl-3-o-tolyl-4-quinazolone]",Percent Protection,[1],100%
same,24 Hour Mortality,[2],0
same,abuse potential,[8]; in vivo,high abuse potential
same,metabolism in the body,[9],metabolized in the body to the N^1 -oxide of the compound
Cc1nc2ccccc2c(=O)n1-c1ccccc1C(F)(F)F [2-methyl-3-(2-trifluoromethylphenyl)-4-quinazolone],sedative effect compared with methaqualone,[8]; reference 4,better sedative effect
same,toxicity compared with methaqualone,[8]; reference 4,lower toxicity
